Experimental data reported in patent US9051612B2, “Compositions and methods for nucleotide sequencing” (Illumina, Inc., priority 2006, dated 2015).

Biological target: T1, calf intestinal alkaline phosphatase (Bos taurus, UniProt P19111)
T1 construct: purchased USB
Experiment: Enzymatic removal of 2′ phosphate blocking group with alkaline phosphatase
Assay type: biochemical
Details: aqueous buffer, room temperature

T1 sequence (P19111 20-506): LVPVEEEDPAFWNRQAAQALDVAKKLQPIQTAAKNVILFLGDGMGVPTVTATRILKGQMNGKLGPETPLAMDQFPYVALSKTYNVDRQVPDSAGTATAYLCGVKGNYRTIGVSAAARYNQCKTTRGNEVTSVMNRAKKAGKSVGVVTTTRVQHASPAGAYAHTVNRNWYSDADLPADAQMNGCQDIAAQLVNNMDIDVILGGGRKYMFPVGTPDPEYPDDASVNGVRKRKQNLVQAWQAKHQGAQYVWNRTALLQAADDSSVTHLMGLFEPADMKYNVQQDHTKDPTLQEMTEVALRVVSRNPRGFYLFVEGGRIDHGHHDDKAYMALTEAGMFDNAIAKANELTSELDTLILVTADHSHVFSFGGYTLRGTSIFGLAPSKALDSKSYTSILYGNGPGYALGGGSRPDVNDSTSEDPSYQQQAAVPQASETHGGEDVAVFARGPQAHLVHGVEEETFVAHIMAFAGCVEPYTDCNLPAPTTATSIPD

SMILES: O=c1ccn(C2OC(COP(=O)(O)OP(=O)(O)OP(=O)(O)O)C(O)C2OP(=O)(O)O)c(=O)[nH]1 (stereo not shown) [2′ reversible terminator, 2′-phosphate UTP]
- removal of the phosphate blocking group: can be quantitatively removed using alkaline phosphatase in less than one minute
